Data: patent US8889676B2, “3-ureidoisoquinolin-8-yl derivatives” (Actelion Pharmaceuticals Ltd., priority 2011, dated 2014)
Converted amounts (≈) assume the structure as drawn.

Each compound was assayed on S. pneumoniae ATCC 49619 (assay: Minimal inhibitory concentration (MIC) by broth microdilution (CLSI M7-A7)). Settings: Streptococcus pneumoniae, ATCC49619; cation-adjusted Mueller Hinton Broth supplemented with 3% (v/v) lysed horse blood; microdilution method.
Format: cell-based, Streptococcus pneumoniae
Procedure: Minimal inhibitory concentrations (MICs; mg/l) were determined in cation-adjusted MuellerHinton Broth (supplemented with 3% (v/v) lysed horse blood for testing Streptococcus pneumoniae) by a microdilution method following the description given in “Methods for Dilution Antimicrobial Susceptibility Tests for Bacteria that Grow Aerobically”, Approved standard, 7th ed., a Clinical and Laboratory Standards Institute (CLSI) Document M7-A7, Wayne, Pa., USA, 2006.

Q: With CCNC(=O)Nc1cc2c(-c3ccncc3)ccc(CNC(=O)OCc3cccnc3)c2cn1 [Example 42, [3-(3-ethyl-ureido)-5-pyridin-4-yl-isoquinolin-8-ylmethyl]-carbamic acid pyridin-3-ylmethyl ester] as the compound, how does the MIC read?
A: 0.5 µg/mL (≈ 1.1 µM)

Q: CCNC(=O)NCc1cccc2cc(NC(=O)NCC)ncc12 [Example 43, 1-ethyl-3-{8-[(3-ethyl-ureido)-methyl]isoquinolin-3-yl}-urea] was tested. Which MIC did it give?
A: 4 µg/mL (≈ 12.7 µM)

Q: C#CCOC(=O)N(C)Cc1cccc2cc(NC(=O)NCC)ncc12 [Example 44, [3-(3-ethyl-ureido)-isoquinolin-8-ylmethyl]-methyl-carbamic acid prop-2-ynyl ester] was tested. Which MIC did it give?
A: 8 µg/mL (≈ 23.5 µM)

Q: How did the MIC turn out when CCNC(=O)Nc1cc2c(-c3ccncc3)ccc(CNC(=O)CC(=O)O)c2cn1 [Example 45, N-[3-(3-ethyl-ureido)-5-pyridin-4-yl-isoquinolin-8-ylmethyl]-malonamic acid] was run?
A: 8 µg/mL (≈ 19.6 µM)

Q: For CCNC(=O)Nc1cc2c(-c3ccncc3)ccc(CNC(=O)CCC(=O)OC(C)(C)C)c2cn1 [Example 46, N-[3-(3-ethyl-ureido)-5-pyridin-4-yl-isoquinolin-8-ylmethyl]-succinamic acid tert-butyl ester], which MIC is on record?
A: 2 µg/mL (≈ 4.19 µM)

Q: Which MIC does the source give for CCNC(=O)Nc1cc2c(-c3ccncc3)ccc(CNC(=O)CNC(=O)OC(C)(C)C)c2cn1 [Example 47, ({[3-(3-ethyl-ureido)-5-pyridin-4-yl-isoquinolin-8-ylmethyl]-carbamoyl}-methyl)-carbamic acid tert-butyl ester] here?
A: 1 µg/mL (≈ 2.09 µM)

Q: How did the MIC turn out when CCNC(=O)Nc1cc2c(-c3ccncc3)ccc(CNC(=O)CN(C)C(=O)OC(C)(C)C)c2cn1 [Example 48, ({[3-(3-ethyl-ureido)-5-pyridin-4-yl-isoquinolin-8-ylmethyl]-carbamoyl}-methyl)-methyl-carbamic acid tert-butyl ester] was run?
A: 2 µg/mL (≈ 4.06 µM)

Q: CCNC(=O)Nc1cc2c(-c3ccncc3)ccc(CNC(=O)CCNC(=O)OC(C)(C)C)c2cn1 [Example 49, (2-{[3-(3-ethyl-ureido)-5-pyridin-4-yl-isoquinolin-8-ylmethyl]-carbamoyl}-ethyl)-carbamic acid tert-butyl ester] was tested. Which MIC did it give?
A: 0.5 µg/mL (≈ 1.02 µM)

Q: Which MIC does the source give for CCNC(=O)Nc1cc2c(-c3ccncc3)ccc(CNC(=O)CN)c2cn1.Cl [Example 50, 2-amino-N-[3-(3-ethyl-ureido)-5-pyridin-4-yl-isoquinolin-8-ylmethyl]-acetamide hydrochloride] here?
A: 4 µg/mL

Q: How did the MIC turn out when CCNC(=O)Nc1cc2c(-c3ccncc3)ccc(CNC(=O)CCN)c2cn1.Cl [Example 51, 3-amino-N-[3-(3-ethyl-ureido)-5-pyridin-4-yl-isoquinolin-8-ylmethyl]-propionamide hydrochloride] was run?
A: 8 µg/mL

Q: CCNC(=O)Nc1cc2c(-c3ccncc3)ccc(CNC(=O)CC(N)=O)c2cn1 [Example 52, N-[3-(3-ethyl-ureido)-5-pyridin-4-yl-isoquinolin-8-ylmethyl]-malonamide] was tested. Which MIC did it give?
A: 2 µg/mL (≈ 4.92 µM)

Q: For CCNC(=O)Nc1cc2c(-c3ccncc3)ccc(CNC(=O)CC(=O)NC)c2cn1 [Example 53, N-[3-(3-ethyl-ureido)-5-pyridin-4-yl-isoquinolin-8-ylmethyl]-N′-methyl-malonamide], which MIC is on record?
A: 4 µg/mL (≈ 9.51 µM)

Q: How did the MIC turn out when CCNC(=O)Nc1cc2c(-c3ccncc3)ccc(CNC(=O)CCC(N)=O)c2cn1 [Example 54, N-[3-(3-ethyl-ureido)-5-pyridin-4-yl-isoquinolin-8-ylmethyl]-succinamide] was run?
A: 4 µg/mL (≈ 9.51 µM)

Q: Which MIC does the source give for CCNC(=O)Nc1cc2c(-c3ccncc3)ccc(CNC(=O)CCC(=O)NC)c2cn1 [Example 55, N-[3-(3-ethyl-ureido)-5-pyridin-4-yl-isoquinolin-8-ylmethyl]-N′-methyl-succinamide] here?
A: 8 µg/mL (≈ 18.4 µM)

Q: Which MIC does the source give for CCNC(=O)Nc1cc2c(-c3ccncc3)ccc(CNC(=O)CCCNC(=O)OC(C)(C)C)c2cn1 [Example 56, (3-{[3-(3-ethyl-ureido)-5-pyridin-4-yl-isoquinolin-8-ylmethyl]-carbamoyl}-propyl)-carbamic acid tert-butyl ester] here?
A: 1 µg/mL (≈ 1.97 µM)

Q: How did the MIC turn out when CCNC(=O)Nc1cc2c(-c3ccncc3)ccc(CNC(=O)CC3CC3)c2cn1 [Example 57, 2-cyclopropyl-N-[3-(3-ethyl-ureido)-5-pyridin-4-yl-isoquinolin-8-ylmethyl]-acetamide] was run?
A: 0.5 µg/mL (≈ 1.24 µM)

Q: Which MIC does the source give for CCNC(=O)Nc1cc2c(-c3ccncc3)ccc(CNC(=O)CCN(C)C(=O)OC(C)(C)C)c2cn1 [Example 58, (2-{[3-(3-ethyl-ureido)-5-pyridin-4-yl-isoquinolin-8-ylmethyl]-carbamoyl}-ethyl)-methyl-carbamic acid tert-butyl ester] here?
A: 2 µg/mL (≈ 3.95 µM)

Q: CCNC(=O)Nc1cc2c(-c3ccncc3)ccc(CNC(=O)CC)c2cn1 [Example 59, N-[3-(3-ethyl-ureido)-5-pyridin-4-yl-isoquinolin-8-ylmethyl]-propionamide] was tested. Which MIC did it give?
A: 0.5 µg/mL (≈ 1.32 µM)

Q: For CCNC(=O)Nc1cc2c(-c3ccncc3)ccc(CNC(=O)Cc3c[nH]cn3)c2cn1 [Example 60, N-[3-(3-ethyl-ureido)-5-pyridin-4-yl-isoquinolin-8-ylmethyl]-2-(1H-imidazol-4-yl)-acetamide], which MIC is on record?
A: 8 µg/mL (≈ 18.6 µM)

Q: Which MIC does the source give for CCNC(=O)Nc1cc2c(-c3ccncc3)ccc(CNC(=O)CO)c2cn1 [Example 61, N-[3-(3-ethyl-ureido)-5-pyridin-4-yl-isoquinolin-8-ylmethyl]-2-hydroxy-acetamide] here?
A: 4 µg/mL (≈ 10.5 µM)

Q: CCNC(=O)Nc1cc2c(-c3ccncc3)ccc(CNC(=O)CCCN(C)C(=O)OC(C)(C)C)c2cn1 [Example 62, (3-{[3-(3-ethyl-ureido)-5-pyridin-4-yl-isoquinolin-8-ylmethyl]-carbamoyl}propyl)-methyl-carbamic acid tert-butyl ester] was tested. Which MIC did it give?
A: 1 µg/mL (≈ 1.92 µM)

Q: How did the MIC turn out when CCNC(=O)Nc1cc2c(-c3ccncc3)ccc(CNC(=O)CCOC)c2cn1 [Example 63, N-[3-(3-ethyl-ureido)-5-pyridin-4-yl-isoquinolin-8-ylmethyl]-3-methoxy-propionamide] was run?
A: 1 µg/mL (≈ 2.45 µM)

Q: How did the MIC turn out when CCNC(=O)Nc1cc2c(-c3ccncc3)ccc(CNC(C)=O)c2cn1 [Example 64, N-[3-(3-ethyl-ureido)-5-pyridin-4-yl-isoquinolin-8-ylmethyl]-acetamide] was run?
A: 0.5 µg/mL (≈ 1.38 µM)

Q: CCNC(=O)Nc1cc2c(-c3ccncc3)ccc(CNC(=O)C3CC3)c2cn1 [Example 65, cyclopropanecarboxylic acid [3-(3-ethyl-ureido)-5-pyridin-4-yl-isoquinolin-8-ylmethyl]-amide] was tested. Which MIC did it give?
A: 0.25 µg/mL (≈ 0.642 µM)

Q: Which MIC does the source give for CCNC(=O)Nc1cc2c(-c3ccncc3)ccc(CNC(=O)CC(C)C)c2cn1 [Example 66, N-[3-(3-ethyl-ureido)-5-pyridin-4-yl-isoquinolin-8-ylmethyl]-3-methyl-butyramide] here?
A: 0.25 µg/mL (≈ 0.617 µM)

Q: CCNC(=O)Nc1cc2c(-c3ccncc3)ccc(CNC(=O)C(C)C)c2cn1 [Example 67, N-[3-(3-ethyl-ureido)-5-pyridin-4-yl-isoquinolin-8-ylmethyl]-isobutyramide] was tested. Which MIC did it give?
A: 0.5 µg/mL (≈ 1.28 µM)

Q: How did the MIC turn out when CCNC(=O)Nc1cc2c(-c3ccncc3)ccc(CNC(=O)CCO)c2cn1 [Example 68, N-[3-(3-ethyl-ureido)-5-pyridin-4-yl-isoquinolin-8-ylmethyl]-3-hydroxy-propionamide] was run?
A: 4 µg/mL (≈ 10.2 µM)

Q: C#CCCC(=O)NCc1ccc(-c2ccncc2)c2cc(NC(=O)NCC)ncc12 [Example 69, pent-4-ynoic acid [3-(3-ethyl-ureido)-5-pyridin-4-yl-isoquinolin-8-ylmethyl]-amide] was tested. Which MIC did it give?
A: 0.25 µg/mL (≈ 0.623 µM)

Q: With CCNC(=O)Nc1cc2c(-c3ccncc3)ccc(CNC(=O)Cn3cccn3)c2cn1 [Example 70, N-[3-(3-ethyl-ureido)-5-pyridin-4-yl-isoquinolin-8-ylmethyl]-2-pyrazol-1-yl-acetamide] as the compound, how does the MIC read?
A: 0.5 µg/mL (≈ 1.16 µM)

Q: With CCNC(=O)Nc1cc2c(-c3ccncc3)ccc(CNC(=O)c3cnc[nH]3)c2cn1 [Example 71, 3H-imidazole-4-carboxylic acid [3-(3-ethyl-ureido)-5-pyridin-4-yl-isoquinolin-8-ylmethyl]-amide] as the compound, how does the MIC read?
A: 2 µg/mL (≈ 4.81 µM)

Q: CCNC(=O)Nc1cc2c(-c3ccncc3)ccc(CNC(=O)c3cc[nH]n3)c2cn1 [Example 72, 1H-pyrazole-3-carboxylic acid [3-(3-ethyl-ureido)-5-pyridin-4-yl-isoquinolin-8-ylmethyl]-amide] was tested. Which MIC did it give?
A: 0.5 µg/mL (≈ 1.2 µM)

Q: How did the MIC turn out when CCNC(=O)Nc1cc2c(-c3ccncc3)ccc(CNC(=O)c3cn[nH]c3)c2cn1 [Example 73, 1H-pyrazole-4-carboxylic acid [3-(3-ethyl-ureido)-5-pyridin-4-yl-isoquinolin-8-ylmethyl]-amide] was run?
A: 2 µg/mL (≈ 4.81 µM)

Q: CCNC(=O)Nc1cc2c(-c3ccncc3)ccc(CNC(=O)c3ncc[nH]3)c2cn1 [Example 74, 1H-imidazole-2-carboxylic acid [3-(3-ethyl-ureido)-5-pyridin-4-yl-isoquinolin-8-ylmethyl]-amide] was tested. Which MIC did it give?
A: 0.25 µg/mL (≈ 0.602 µM)

Q: C#CC(=O)NCc1ccc(-c2ccncc2)c2cc(NC(=O)NCC)ncc12 [Example 75, propynoic acid [3-(3-ethyl-ureido)-5-pyridin-4-yl-isoquinolin-8-ylmethyl]-amide] was tested. Which MIC did it give?
A: 0.25 µg/mL (≈ 0.669 µM)

Q: How did the MIC turn out when CCNC(=O)Nc1cc2c(-c3ccncc3)ccc(CNC(=O)OC(C)(C)C)c2cn1 [Example 76, [3-(3-ethyl-ureido)-5-pyridin-4-yl-isoquinolin-8-ylmethyl]-carbamic acid tert-butyl ester] was run?
A: 0.25 µg/mL (≈ 0.593 µM)

Q: Which MIC does the source give for CCNC(=O)Nc1cc2c(-c3ccncc3)ccc(CNC(=O)OC(C)C)c2cn1 [Example 77, [3-(3-ethyl-ureido)-5-pyridin-4-yl-isoquinolin-8-ylmethyl]-carbamic acid isopropyl ester] here?
A: 0.5 µg/mL (≈ 1.23 µM)

Q: Which MIC does the source give for CCNC(=O)Nc1cc2c(-c3ccncc3)ccc(CNC(=O)OCCN(C)C)c2cn1 [Example 78, [3-(3-ethyl-ureido)-5-pyridin-4-yl-isoquinolin-8-ylmethyl]-carbamic acid 2-dimethylamino-ethyl ester] here?
A: 4 µg/mL (≈ 9.16 µM)

Q: How did the MIC turn out when CCNC(=O)Nc1cc2c(-c3ccncc3)ccc(CNC(=O)OC)c2cn1 [Example 79, [3-(3-ethyl-ureido)-5-pyridin-4-yl-isoquinolin-8-ylmethyl]-carbamic acid methyl ester] was run?
A: 0.25 µg/mL (≈ 0.659 µM)
